In data set [1] the test system is TNF-α secretion in THP-1 cells. Kind of data set: cells. The following applies: Homo sapiens, THP-1, 5 h, read-out: IC50 in inhibiting TNF-α secretion in THP-1 cells.
Experimental: Method for Determining THP-1 Cell Activity
In this experiment, TNF-α secretion was triggered by lipopolysaccharide (LPS) incubation.
After induced differentiation under the condition of 37° C. and 5% CO2 for 48 h, adherent macrophages were produced. Then PMA supernatant was removed and PBS was used to wash the cells once. In each case, all the drugs were dissolved in 100% DMSO to obtain an initial concentration of 10 mM. The drugs were filtered with 0.22 μm sterile filter membrane before use. LPS was dissolved in PBS with an initial concentration of 1 mg/mL. During use, it was diluted to 20 μg/mL with PBS. […] 200 μL of drugs were added to each well, and 50 μL of 20 μg/ml LPS (final concentration: 4 μg/mL) was added to each well. They were incubated in a 5% CO 2 incubator at 37° C. for 5 h. […]
Determination by using TNF-α ELISA kit: the amount of TNF-α was determined by R&D System Human TNF-α ELISA kit. […] 50 μL of Stop Solution (2N sulfuric acid stop solution) was added to each well and evenly mixed, and the absorbance at 450 nm was measured with microplate reader within 30 min. Compared with the fluorescence intensity ratio of the control group, the inhibition rate of the compound at each concentration was calculated, and then the IC 50 value of the compound was calculated by fitting the nonlinear curve of logarithmic concentration-inhibition rate with GraphPad Prism5.
A short description of data set [2]: Solubility test in phosphate buffer solution (PBS, pH7.4). Format: physicochemical. As to conditions: PBS pH 7.4, room temperature, LC-UV.
Experimental: 1.5 mg of the test compound was taken, and PBS was added thereto to prepare the test solution with theoretical concentration of 2 mg·mL^−1. The test solution was ultrasonicated for 10 min, and rotated on a rotating tray at room temperature for at least 8 h. After the rotation treatment, the test solution was ultrasonicated for 10 min and centrifuged at 13000 rpm for 15 min. 100 μL of supernatant was transferred to a 0.6 mL new tube for spinning and rinsing for 5 min. 500 μL of supernatant was transferred into the above rinsed 0.6 mL tube. Then the tube was centrifuged at 13000 rpm for 15 min, and the supernatant was taken (or diluted) for analysis by LC-UV. Sample concentration was quantified by standard curve fitting (3 points).

Molecules are shown by their SMILES. pIC50: −log10 of the molar value.

Broadly, the pIC50 is the negative decadic logarithm of the IC50, by convention in mol/L. For `CN(C)CCn1cc2cc(NC(=O)c3cccc(C(F)(F)F)n3)c(C(C)(C)O)cc2n1` [Compound 1, N-(2-(2-(dimethylamino)ethyl)-6-(2-hydroxypropan-2-yl)-2H-indazol-5-yl)-6-(trifluoromethyl)pyridin-2-carboxamide], the negative-log IC50 (pIC50) in data set [1] was 7.26.
For the compound `CC(C)(O)CCn1cc2cc(NC(=O)c3cccc(C(F)(F)F)n3)c(C(C)(C)O)cc2n1` [BAY-1834845], the “Solubility in phosphate buffer solution (PBS, pH 7.4)” value in data set [2] was 6.7 uM.
